Laboratory results as given in ChEMBL document CHEMBL3046164, “A facile synthesis of some 3-cyano-1,4,6-trisubstituted-2(1H)-pyridinones and their biological evaluation as anticancer agents” (2011).

Legend:
Assay type in all cases: functional
[1] = test system: HOP-92; experiment: Growth inhibition of Homo sapiens (human) HOP92 cells at 10 uM after 48 hr by SRB assay; conditions: HOP-92, 48 h, read-out: GI
[2] = test system: PC-3; experiment: Growth inhibition of Homo sapiens (human) PC3 cells at 10 uM after 48 hr by SRB assay; conditions: PC-3, 48 h, read-out: GI
[3] = test system: CCRF-CEM; experiment: Growth inhibition of Homo sapiens (human) CCRF-CEM cells at 10 uM after 48 hr by SRB assay; conditions: read-out: GI
[4] = test system: RPMI-8226; experiment: Growth inhibition of Homo sapiens (human) RPMI8226 cells at 10 uM after 48 hr by SRB assay; conditions: RPMI-8226, 48 h, read-out: GI
[5] = test system: SF-268; experiment: Cytotoxicity against Homo sapiens (human) SF268 cells after 48 hr by SRB assay; conditions: SF-268, 48 h
[6] = test system: T47D; experiment: Cytotoxicity against Homo sapiens (human) T47D cells after 48 hr by SRB assay
[7] = test system: SNB-75; experiment: Cytotoxicity against Homo sapiens (human) SNB75 cells after 48 hr by SRB assay; conditions: SNB-75, 48 h
[8] = test system: OVCAR-3; experiment: Cytotoxicity against Homo sapiens (human) OVCAR3 cells after 48 hr by SRB assay; conditions: OVCAR-3, 48 h
[9] = test system: HCC 2998; experiment: Cytotoxicity against Homo sapiens (human) HCC2998 cells after 48 hr by SRB assay; conditions: HCC 2998, 48 h
[10] = test system: HOP-62; experiment: Cytotoxicity against Homo sapiens (human) HOP62 cells after 48 hr by SRB assay; conditions: HOP-62, 48 h
[11] = test system: OVCAR-4; experiment: Cytotoxicity against Homo sapiens (human) OVCAR4 cells after 48 hr by SRB assay; conditions: OVCAR-4, 48 h
[12] = test system: SF-539; experiment: Cytotoxicity against Homo sapiens (human) SF539 cells after 48 hr by SRB assay; conditions: SF-539, 48 h
[13] = test system: SR; experiment: Cytotoxicity against Homo sapiens (human) SR cells after 48 hr by SRB assay
[14] = test system: MDA-MB-231; experiment: Cytotoxicity against Homo sapiens (human) MDA-MB-231 cells after 48 hr by SRB assay; conditions: MDA-MB-231, 48 h
[15] = test system: CCRF-CEM; experiment: Cytotoxicity against Homo sapiens (human) CCRF-CEM cells after 48 hr by SRB assay
[16] = test system: EKVX; experiment: Cytotoxicity against Homo sapiens (human) EKVX cells after 48 hr by SRB assay
[17] = test system: RPMI-8226; experiment: Cytotoxicity against Homo sapiens (human) RPMI8226 cells after 48 hr by SRB assay; conditions: Homo sapiens, RPMI-8226, 48 h
[18] = test system: BT-549; experiment: Cytotoxicity against Homo sapiens (human) BT549 cells after 48 hr by SRB assay; conditions: BT-549, 48 h
[19] = test system: A498; experiment: Cytotoxicity against Homo sapiens (human) A498 cells after 48 hr by SRB assay; conditions: A498, 48 h
[20] = test system: HOP-92; experiment: Cytotoxicity against Homo sapiens (human) HOP92 cells after 48 hr by SRB assay; conditions: HOP-92, 48 h
[21] = test system: UACC-62; experiment: Cytotoxicity against Homo sapiens (human) UACC62 cells after 48 hr by SRB assay; conditions: UACC-62, 48 h
[22] = test system: IGROV-1; experiment: Cytotoxicity against Homo sapiens (human) IGROV1 cells after 48 hr by SRB assay; conditions: IGROV-1, 48 h
[23] = test system: UO-31; experiment: Cytotoxicity against Homo sapiens (human) UO31 cells after 48 hr by SRB assay; conditions: UO-31, 48 h
[24] = test system: HL-60(TB); experiment: Cytotoxicity against Homo sapiens (human) HL-60(TB) cells after 48 hr by SRB assay; conditions: HL-60, 48 h
[25] = test system: K562; experiment: Growth inhibition of Homo sapiens (human) K562 cells at 10 uM after 48 hr by SRB assay; conditions: K562, 48 h, read-out: GI
[26] = test system: SR; experiment: Growth inhibition of Homo sapiens (human) SR cells at 10 uM after 48 hr by SRB assay; conditions: read-out: GI
[27] = test system: CAKI-1; experiment: Growth inhibition of Homo sapiens (human) CAKI-1 cells at 10 uM after 48 hr by SRB assay; conditions: CAKI-1, 48 h, read-out: GI
[28] = test system: A498; experiment: Growth inhibition of Homo sapiens (human) A498 cells at 10 uM after 48 hr by SRB assay; conditions: A498, 48 h, read-out: GI
[29] = test system: BT-549; experiment: Growth inhibition of Homo sapiens (human) BT549 cells at 10 uM after 48 hr by SRB assay; conditions: BT-549, 48 h, read-out: GI
[30] = test system: NCI-H23; experiment: Growth inhibition of Homo sapiens (human) NCI-H23 cells at 10 uM after 48 hr by SRB assay; conditions: NCI-H23, 48 h, read-out: GI
[31] = test system: HL-60(TB); experiment: Growth inhibition of Homo sapiens (human) HL-60(TB) cells at 10 uM after 48 hr by SRB assay; conditions: HL-60, 48 h, read-out: GI
[32] = test system: MOLT-4; experiment: Growth inhibition of Homo sapiens (human) MOLT4 cells at 10 uM after 48 hr by SRB assay; conditions: MOLT-4, 48 h, read-out: GI
[33] = test system: UO-31; experiment: Growth inhibition of Homo sapiens (human) UO31 cells at 10 uM after 48 hr by SRB assay; conditions: UO-31, 48 h, read-out: GI
[34] = test system: MDA-MB-468; experiment: Growth inhibition of Homo sapiens (human) MDA-MB-468 cells at 10 uM after 48 hr by SRB assay; conditions: MDA-MB-468, 48 h, read-out: GI

## COc1ccc(-c2cc(-c3cccs3)n3c(C)nnc3c2C#N)cc1
[1]
  inhibition of growth at 10 µM: 23.5%

## Cc1nnc2c(C#N)c(-c3cccn3C)cc(-c3ccc(Br)cc3)n12
[2]
  inhibition of growth at 10 µM: 24%
[1]
  inhibition of growth at 10 µM: 30%
[3]
  inhibition of growth at 10 µM: 66%
[4]
  inhibition of growth at 10 µM: 43.2%

## CC(=O)n1c(-c2ccc(Br)cc2)cc(-c2cccn2C)c(C#N)c1=O
[1]
  inhibition of growth at 10 µM: 24.6%

## COc1ccc(-c2cc(-c3cccs3)[nH]c(=O)c2C#N)cc1
[5]
  GI50: > 100 µM
[6]
  GI50: > 100 µM
[7]
  GI50: 39.8 µM
[8]
  GI50: > 100 µM
[9]
  GI50: > 100 µM
[10]
  GI50: > 100 µM
[11]
  GI50: 69.2 µM
[12]
  GI50: > 100 µM
[13]
  GI50: 60.2 µM
[14]
  GI50: > 100 µM
[15]
  GI50: 23.4 µM
[16]
  GI50: > 100 µM
[17]
  GI50: 22.4 µM
[18]
  GI50: > 100 µM
[19]
  GI50: > 100 µM
[20]
  GI50: > 100 µM
[21]
  GI50: > 100 µM
[22]
  GI50: > 100 µM
[23]
  GI50: > 100 µM
[24]
  GI50: 45.7 µM

## COc1ccc(-c2cc(-c3cccn3C)c(C#N)c(=O)n2C(=S)Nc2ccc(F)cc2)cc1OC
[25]
  inhibition of growth at 10 µM: 26.9%
[26]
  inhibition of growth at 10 µM: 27.8%
[27]
  inhibition of growth at 10 µM: 31.1%

## COc1ccc(-c2cc(-c3cccn3C)c(C#N)c(=O)n2C(C)=O)cc1OC
[25]
  inhibition of growth at 10 µM: 25.3%

## COc1ccc(-c2cc(-c3cccs3)n(N=O)c(=O)c2C#N)cc1
[1]
  inhibition of growth at 10 µM: 36.2%
[3]
  inhibition of growth at 10 µM: 42%
[25]
  inhibition of growth at 10 µM: 65.8%

## Cn1cccc1-c1cc(-c2ccc(Br)cc2)n(N=O)c(=O)c1C#N
[1]
  inhibition of growth at 10 µM: 28.2%
[28]
  inhibition of growth at 10 µM: 25.7%
[29]
  inhibition of growth at 10 µM: 32.8%
[26]
  inhibition of growth at 10 µM: 37.5%

## CCn1c(-c2ccc(OC)c(OC)c2)cc(-c2cccn2C)c(C#N)c1=O
[1]
  inhibition of growth at 10 µM: 29%
[28]
  inhibition of growth at 10 µM: 44%
[3]
  inhibition of growth at 10 µM: 43.7%
[25]
  inhibition of growth at 10 µM: 63.5%

## COc1ccc(-c2cc(-c3cccn3C)c(C#N)c(=O)n2N=O)cc1OC
[1]
  inhibition of growth at 10 µM: 26.8%
[25]
  inhibition of growth at 10 µM: 26.6%

## COc1ccc(-c2cc(-c3cccs3)n(S(=O)(=O)c3ccccc3)c(=O)c2C#N)cc1
[1]
  inhibition of growth at 10 µM: 21.3%
[30]
  inhibition of growth at 10 µM: 20%
[31]
  inhibition of growth at 10 µM: 55%
[3]
  inhibition of growth at 10 µM: 56.2%
[4]
  inhibition of growth at 10 µM: 22%
[25]
  inhibition of growth at 10 µM: 27.7%
[32]
  inhibition of growth at 10 µM: 28.1%

## COc1ccc(-c2cc(-c3cccs3)n(C(C)=O)c(=O)c2C#N)cc1
[1]
  inhibition of growth at 10 µM: 29.6%
[26]
  inhibition of growth at 10 µM: 30.5%

## COc1ccc(-c2cc(-c3cccn3C)c(C#N)c(=O)n2S(=O)(=O)c2ccccc2)cc1OC
[1]
  inhibition of growth at 10 µM: 25.8%
[29]
  inhibition of growth at 10 µM: 21%
[26]
  inhibition of growth at 10 µM: 31.4%

## Cn1cccc1-c1cc(-c2ccc(Br)cc2)n(S(=O)(=O)c2ccccc2)c(=O)c1C#N
[1]
  inhibition of growth at 10 µM: 26%
[30]
  inhibition of growth at 10 µM: 22.2%
[31]
  inhibition of growth at 10 µM: 59.7%
[3]
  inhibition of growth at 10 µM: 55.9%
[25]
  inhibition of growth at 10 µM: 22.5%
[32]
  inhibition of growth at 10 µM: 26.6%

## COc1ccc(-c2cc(-c3cccn3C)c(C#N)c(=O)[nH]2)cc1OC
[5]
  GI50: > 100 µM
[6]
  GI50: 34.7 µM
[7]
  GI50: 23.9 µM
[8]
  GI50: > 100 µM
[9]
  GI50: 89.1 µM
[10]
  GI50: 30.9 µM
[11]
  GI50: > 100 µM
[12]
  GI50: 67.6 µM
[13]
  GI50: 0.48 µM
[14]
  GI50: > 100 µM
[15]
  GI50: 5.01 µM
[16]
  GI50: 0.05 µM
  TGI: 9.77 µM
[17]
  GI50: 22.9 µM
[18]
  GI50: > 100 µM
[19]
  GI50: 56.2 µM
[20]
  GI50: > 100 µM
[21]
  GI50: 66.1 µM
[22]
  GI50: 91.2 µM
[23]
  GI50: 85.1 µM
[24]
  GI50: > 100 µM

## COc1ccc(-c2cc(-c3cccn3C)c(C#N)c(=O)n2C=O)cc1OC
[31]
  inhibition of growth at 10 µM: 57.1%
[3]
  inhibition of growth at 10 µM: 47.1%
[25]
  inhibition of growth at 10 µM: 21.4%
[32]
  inhibition of growth at 10 µM: 28.5%

## Cn1cccc1-c1cc(-c2ccc(Br)cc2)n(Cc2ccccc2)c(=O)c1C#N
[2]
  inhibition of growth at 10 µM: 32.5%
[1]
  inhibition of growth at 10 µM: 44.7%
[3]
  inhibition of growth at 10 µM: 39.5%
[4]
  inhibition of growth at 10 µM: 38.2%
[25]
  inhibition of growth at 10 µM: 45.4%

## Cn1cccc1-c1cc(-c2ccc(Br)cc2)[nH]c(=O)c1C#N
[5]
  GI50: > 100 µM
[6]
  GI50: > 100 µM
[7]
  GI50: 25.7 µM
[8]
  GI50: 85.1 µM
[9]
  GI50: > 100 µM
[10]
  GI50: 34.7 µM
[11]
  GI50: > 100 µM
[12]
  GI50: 89.1 µM
[13]
  GI50: > 100 µM
[14]
  GI50: 83.2 µM
[15]
  GI50: 47.3 µM
[16]
  GI50: 27.5 µM
[17]
  GI50: 57.5 µM
[18]
  GI50: 85.1 µM
[19]
  GI50: 54.9 µM
[20]
  GI50: > 100 µM
[21]
  GI50: 48.9 µM
[22]
  GI50: 77.6 µM
[23]
  GI50: 69.2 µM
[24]
  GI50: > 100 µM

## COc1ccc(-c2cc(-c3cccs3)n(Cc3ccccc3)c(=O)c2C#N)cc1
[33]
  inhibition of growth at 10 µM: 23.5%
[1]
  inhibition of growth at 10 µM: 26.8%
[30]
  inhibition of growth at 10 µM: 21%
[25]
  inhibition of growth at 10 µM: 50.4%

## CCn1c(-c2ccc(Br)cc2)cc(-c2cccn2C)c(C#N)c1=O
[2]
  inhibition of growth at 10 µM: 28%
[1]
  inhibition of growth at 10 µM: 28.3%
[3]
  inhibition of growth at 10 µM: 62.5%
[4]
  inhibition of growth at 10 µM: 35%
[34]
  inhibition of growth at 10 µM: 30%

## COc1ccc(-c2cc(-c3cccn3C)c(C#N)c(=O)n2Cc2ccccc2)cc1OC
[4]
  inhibition of growth at 10 µM: 64.1%
